# Laboratory results: patent publication US7915402B2, “Antioxidant inflammation modulators: oleanolic acid derivatives with saturation in the C-ring” (Reata Pharmaceuticals, Inc., priority 2008, dated 2011)
# “And” between values parts separate entries of the source, which are not always exact repeats. Equal entries are not always repeated.
# Key:
# [1] = CNS and lung tissue concentrations after oral dosing in monkeys; type: in vivo; settings: cynomolgus monkey; for excess of mean CNS concentration compared to the dose necessary to suppress inflammation in vitro: vs NO IC50 about 45 nM; for Mean 404-02 CNS Tissue Content (ng/g) ± SEM: day 15, about 3 h after dosing; for Mean 404-02 CNS Tissue Concentration (nM) ± SEM: conversion assumes tissue density 1 g/mL
# Method: CNS and lung concentrations following oral dosing: 2 male and 2 female cynomolgus monkeys were administered 404-02 at 0.5, 5, 25 or 75 mg/kg/day doses via oral gavage, in addition to a control (non-treatment) group with 2 animals per sex. Animals were sacrificed approximately 3 hours after dosing on day 15 following harvest of brain and lung tissues. Each sample collected was rinsed in 1× isotonic phosphate buffered saline and blotted dry before weighing. Harvested tissue slices were transferred to cryovials and stored at −80° C. until processing and LC-MS/MS analysis. Standard curves were derived for 404-02 in homogenates of these tissues and were used to quantify the day 15 samples.
# [2] = tested on: Ferritin heavy chain; assay: Induction of ferritin heavy chain mRNA (qPCR); type: cell-based, human; settings: MDA-MB-435 cells, 16 hours
# Method: (§1) FIG. 24. Induction of Ferritin Heavy Chain. MDA-MB-435 human melanoma cells were treated with vehicle (DMSO) or the indicated compounds and concentrations for 16 hours. Ferritin heavy chain mRNA levels were quantified using qPCR and were normalized relative to a DMSO-treated sample run in parallel. Values are averages of duplicate wells.
# (§2) Nrf2 target gene induction. MDA-MB-435 human melanoma cells were treated with vehicle (DMSO) or the indicated compounds and concentrations for 16 hours. HO-1, thioredoxin reductase-1 (TrxR1), γ-glutamylcysteine synthetase (γ-GCS), and ferritin heavy chain mRNA levels were quantified using qPCR and were normalized relative to a DMSO-treated sample run in parallel. Values are averages of duplicate wells. Primer sequences are as follows.
# [3] = CNS and lung tissue concentrations after oral dosing in rats; type: in vivo; settings: both sexes, Sprague Dawley, rat, SD rats, oral gavage, day 15, 3 h post-dose
# Method: To examine tissue concentrations following oral dosing, 5 male and 5 female Sprague Dawley (SD) rats were administered 404-02 at 1, 10, 50 or 150 mg/kg/day via oral gavage. Doses were prepared in sesame oil and individualized to body weight on the day of dosing. Animals were sacrificed 3 hours post-dose on day 15 of study following harvest of brain and lung specimens. Each sample collected was rinsed in 1× isotonic phosphate buffered saline and blotted dry before weighing. Tissue slices were transferred to cryovials and stored at −80° C. until processing and LC-MS/MS analysis. Standard curves were derived for 404-02 in these tissues.
# [4] = tested on: γ-glutamylcysteine synthetase (γ-GCS); assay: Nrf2 target gene induction, γ-GCS mRNA (qPCR); type: cell-based, human; settings: MDA-MB-435 cells
# Method: as §1, with “21.” for “24.”, “HO-1, TrxR1 and γ-GCS.” for “Ferritin Heavy Chain.”, “HO-1, thioredoxin reductase-1 (TrxR1), and γ-glutamylcysteine synthetase (γ-GCS)” for “Ferritin heavy chain”
# as §1, with “23.” for “24.”, “γ-GCS.” for “Ferritin Heavy Chain.”, “γ-glutamylcysteine synthetase (γ-GCS)” for “Ferritin heavy chain”
# as §2
# [5] = Plasma pharmacokinetics after oral dosing in monkeys; type: in vivo; settings: cynomolgus monkey; for Mean Maximum 404-02 Plasma Concentration (nM) ± SEM / Mean Maximum 404-02 Plasma Concentration (ng/mL) ± SEM: oral gavage
# Method: Doses were prepared in sesame oil and individualized to body weight on the day of dosing. Blood was drawn prior to dosing and at 1, 2, 4, 8 and 24 hours post -dose on days 1 and 12. Blood samples were collected from the femoral artery/vein for determination of 404-02 plasma concentrations. Blood was placed in tubes containing K3EDTA and stored on ice until centrifugation at room temperature. The isolated plasma was transferred to cryovials and stored at −80° C. until sample processing and LC -MS/MS analysis. Extracted plasma standard curves were prepared from fresh stock solutions and analyzed prior to study samples.
# Population mean pharmacokinetic parameter estimates were obtained by performing non-compartmental analysis of the 404-02 plasma concentration-versus-time data using WinNonlin™ software version 5.2.
# Pharmacokinetic parameters obtained using non-compartmental analysis, WinNonlin™ version 5.2.
# Pharmacokinetic parameters were obtained using non-compartmental analysis using WinNonlin™ version 5.2 software.
# [6] = oral gavage, 0.5 mg/kg/day, day 15
# [7] = oral gavage, 5 mg/kg/day, day 15
# [8] = oral gavage, 25 mg/kg/day, day 15
# [9] = oral gavage, 75 mg/kg/day, day 15
structure (smiles),measurement,setting,value
"CC1(C)CC[C@]2(C(=O)NCC(F)(F)F)CC[C@]3(C)[C@H](C(=O)C[C@@H]4[C@@]5(C)C=C(C#N)C(=O)C(C)(C)[C@@H]5CC[C@]43C)[C@@H]2C1 [Compound 63102, (4aS,6aR,6bR,8aR,12aR,12bR,14aR,14bS)-11-cyano-2,2,6a,6b,9,9,12a-heptamethyl-10,14-dioxo-N-(2,2,2-trifluoroethyl)-1,2,3,4,4a,5,6,6a,6b,7,8,8a,9,10,12a,12b,13,14,14a,14b-icosahydropicene-4a-carboxamide]",concentration at 3 h,"[1]; both sexes, lung, oral gavage, 25 mg/kg/day, day 15, read-out: Mean 404-02 Lung Tissue Concentration (nM) ± SEM",246 ± 87 nM
same,excess of mean CNS concentration compared to the dose necessary to suppress inflammation in vitro,[1]; 0.5 mg/kg/day,48 fold
same,excess of mean CNS concentration compared to the dose necessary to suppress inflammation in vitro,[1]; 5 mg/kg/day,44 fold
same,excess of mean CNS concentration compared to the dose necessary to suppress inflammation in vitro,[1]; 25 mg/kg/day,37 fold
same,increase of mean lung tissue exposure compared to the dose necessary to suppress inflammation in vitro,[1]; 75 mg/kg/day,133 fold
same,excess of mean CNS concentration compared to the dose necessary to suppress inflammation in vitro,[1]; 75 mg/kg/day,75 fold
same,Mean 404-02 Lung Tissue Concentration (nM) ± SEM,[1]; [6],1227 ± 508 nM
same,Mean 404-02 Lung Tissue Content (ng/g) ± SEM,[1]; [6],705 ± 292 ng/g
same,Mean 404-02 CNS Tissue Content (ng/g) ± SEM,"[1]; oral gavage, 0.5 mg/kg/day",1198 ± 712 ng/g
same,Mean 404-02 Lung Tissue Concentration (nM) ± SEM,[1]; [7],55 ± 27 nM
same,Mean 404-02 Lung Tissue Content (ng/g) ± SEM,[1]; [7],24 ± 15 ng/g
same,Mean 404-02 CNS Tissue Content (ng/g) ± SEM,"[1]; oral gavage, 5 mg/kg/day",1090 ± 564 ng/g
same,Mean 404-02 CNS Tissue Concentration (nM) ± SEM,[1]; [7],1900 ± 982 nM
same,Mean 404-02 Lung Tissue Content (ng/g) ± SEM,[1]; [8],141 ± 50 ng/g
same,Mean 404-02 CNS Tissue Content (ng/g) ± SEM,"[1]; oral gavage, 25 mg/kg/day",930 ± 352 ng/g
same,Mean 404-02 CNS Tissue Concentration (nM) ± SEM,[1]; [8],1618 ± 612 nM
same,Mean 404-02 Lung Tissue Concentration (nM) ± SEM,[1]; [9],5929 ± 1435 nM
same,Mean 404-02 Lung Tissue Content (ng/g) ± SEM,[1]; [9],3405 ± 824 ng/g
same,Mean 404-02 CNS Tissue Content (ng/g) ± SEM,"[1]; oral gavage, 75 mg/kg/day",1898 ± 496 ng/g
same,Mean 404-02 CNS Tissue Concentration (nM) ± SEM,[1]; [9],3305 ± 864 nM
same,"Ferritin heavy chain mRNA induction: concentration needed compared with unsaturated counterpart (402, 404)",[2],higher concentrations
same,concentration at 3 h,"[3]; brain (CNS tissue), 1 mg/kg/day, read-out: Mean 404-02 CNS Tissue Concentration (nM) ± SEM",51 ± 11.8 nM
same,concentration at 3 h,"[3]; brain (CNS tissue), 1 mg/kg/day, read-out: Mean 404-02 CNS Tissue Content (ng/g = ng/mL) ± SEM",29 ± 6.8 ng/g
same,concentration at 3 h,"[3]; brain (CNS tissue), 10 mg/kg/day, read-out: Mean 404-02 CNS Tissue Concentration (nM) ± SEM",733 ± 173 nM
same,concentration at 3 h,"[3]; brain (CNS tissue), 10 mg/kg/day, read-out: Mean 404-02 CNS Tissue Content (ng/g = ng/mL) ± SEM",421 ± 99 ng/g
same,concentration at 3 h,"[3]; brain (CNS tissue), 50 mg/kg/day, read-out: Mean 404-02 CNS Tissue Concentration (nM) ± SEM",1310 ± 188 nM
same,concentration at 3 h,"[3]; brain (CNS tissue), 50 mg/kg/day, read-out: Mean 404-02 CNS Tissue Content (ng/g = ng/mL) ± SEM",750 ± 108 ng/g
same,concentration at 3 h,"[3]; brain (CNS tissue), 150 mg/kg/day, read-out: Mean 404-02 CNS Tissue Concentration (nM) ± SEM",1110 ± 143 nM
same,concentration at 3 h,"[3]; brain (CNS tissue), 150 mg/kg/day, read-out: Mean 404-02 CNS Tissue Content (ng/g = ng/mL) ± SEM",640 ± 82 ng/g
same,concentration at 3 h,"[3]; lung, 1 mg/kg/day, read-out: Mean dh404 Lung Tissue Concentration (nM) ± SEM",972 ± 215 nM
same,concentration at 3 h,"[3]; lung, 1 mg/kg/day, read-out: Mean dh404 Lung Tissue Content (ng/g = ng/mL) ± SEM",558 ± 123 ng/g
same,concentration at 3 h,"[3]; lung, 10 mg/kg/day, read-out: Mean dh404 Lung Tissue Concentration (nM) ± SEM",7020 ± 1620 nM
same,concentration at 3 h,"[3]; lung, 10 mg/kg/day, read-out: Mean dh404 Lung Tissue Content (ng/g = ng/mL) ± SEM",4030 ± 928 ng/g
same,concentration at 3 h,"[3]; lung, 50 mg/kg/day, read-out: Mean dh404 Lung Tissue Concentration (nM) ± SEM",12500 ± 2130 nM
same,concentration at 3 h,"[3]; lung, 50 mg/kg/day, read-out: Mean dh404 Lung Tissue Content (ng/g = ng/mL) ± SEM",7160 ± 1220 ng/g
same,concentration at 3 h,"[3]; lung, 150 mg/kg/day, read-out: Mean dh404 Lung Tissue Concentration (nM) ± SEM",16900 ± 2860 nM
same,concentration at 3 h,"[3]; lung, 150 mg/kg/day, read-out: Mean dh404 Lung Tissue Content (ng/g = ng/mL) ± SEM",9720 ± 1640 ng/g
same,γ-GCS induction,"[4]; 250 nM, fold induction above DMSO control",4.5 fold
same,"γ-GCS mRNA induction: concentration needed compared with unsaturated counterpart (402, 404)",[4]; 16 hours,higher concentrations
same,Mean Maximum 404-02 Plasma Concentration (nM) ± SEM,"[5]; 0.5 mg/kg/d, day 1, n=4",3.4 ± 0.61 nM
same,Mean Maximum 404-02 Plasma Concentration (ng/mL) ± SEM,"[5]; 0.5 mg/kg/d, day 1, n=4",1.95 ± 0.35 ng/mL
same,Mean Maximum 404-02 Plasma Concentration (ng/mL) ± SEM,"[5]; 0.5 mg/kg/d, day 12, n=4",2.65 ± 0.6 ng/mL
same,Mean Maximum 404-02 Plasma Concentration (nM) ± SEM,"[5]; 0.5 mg/kg/d, day 12, n=4, listed as 404-02, 0.5 mg/kg/day",4.6 nM and 4.6 ± 1.0 nM
same,Mean Maximum 404-02 Plasma Concentration (nM) ± SEM,"[5]; 5 mg/kg/d, day 1, n=4",17.6 ± 6.6 nM
same,Mean Maximum 404-02 Plasma Concentration (ng/mL) ± SEM,"[5]; 5 mg/kg/d, day 1, n=4",10.1 ± 3.8 ng/mL
same,Mean Maximum 404-02 Plasma Concentration (ng/mL) ± SEM,"[5]; 5 mg/kg/d, day 12, n=4",7.3 ± 1.7 ng/mL
same,Mean Maximum 404-02 Plasma Concentration (nM) ± SEM,"[5]; 5 mg/kg/d, day 12, n=4, listed as 404-02, 5 mg/kg/day",12.7 nM and 12.7 ± 2.9 nM
same,Mean Maximum 404-02 Plasma Concentration (nM) ± SEM,"[5]; 25 mg/kg/d, day 1, n=4",29.3 ± 2.3 nM
same,Mean Maximum 404-02 Plasma Concentration (ng/mL) ± SEM,"[5]; 25 mg/kg/d, day 1, n=4",16.8 ± 1.3 ng/mL
same,Mean Maximum 404-02 Plasma Concentration (ng/mL) ± SEM,"[5]; 25 mg/kg/d, day 12, n=4",10.0 ± 3.7 ng/mL
same,Mean Maximum 404-02 Plasma Concentration (nM) ± SEM,"[5]; 25 mg/kg/d, day 12, n=4, listed as 404-02, 25 mg/kg/day",17.5 nM and 17.5 ± 6.4 nM
same,Mean Maximum 404-02 Plasma Concentration (nM) ± SEM,"[5]; 75 mg/kg/d, day 1, n=4",33.8 ± 4.7 nM
same,Mean Maximum 404-02 Plasma Concentration (ng/mL) ± SEM,"[5]; 75 mg/kg/d, day 1, n=4",19.4 ± 2.7 ng/mL
same,Mean Maximum 404-02 Plasma Concentration (nM) ± SEM,"[5]; 75 mg/kg/d, day 12, n=4, listed as 404-02, 75 mg/kg/day",48.6 nM
same,increase in AUC0-24hr after 12 days of dosing compared to day 1,"[5]; oral, 75 mg/kg dose level",1.6 fold
same,accumulation (AUC day 12 vs day 1),"[5]; oral, other dose levels (0.5, 5, 25 mg/kg/day)",Accumulation was not observed
